{"source": "patent EP2241565A1", "about": "“Aurora kinase inhibitors compounds” (Universität Leipzig, priority 2009, dated 2010)", "biological_target": "T1, KDR (VEGFR2) (Homo sapiens, UniProt P35968)", "T1 construct": "GST (N); purchased Biomol", "T1 sequence (P35968 20-1356, species assumed)": "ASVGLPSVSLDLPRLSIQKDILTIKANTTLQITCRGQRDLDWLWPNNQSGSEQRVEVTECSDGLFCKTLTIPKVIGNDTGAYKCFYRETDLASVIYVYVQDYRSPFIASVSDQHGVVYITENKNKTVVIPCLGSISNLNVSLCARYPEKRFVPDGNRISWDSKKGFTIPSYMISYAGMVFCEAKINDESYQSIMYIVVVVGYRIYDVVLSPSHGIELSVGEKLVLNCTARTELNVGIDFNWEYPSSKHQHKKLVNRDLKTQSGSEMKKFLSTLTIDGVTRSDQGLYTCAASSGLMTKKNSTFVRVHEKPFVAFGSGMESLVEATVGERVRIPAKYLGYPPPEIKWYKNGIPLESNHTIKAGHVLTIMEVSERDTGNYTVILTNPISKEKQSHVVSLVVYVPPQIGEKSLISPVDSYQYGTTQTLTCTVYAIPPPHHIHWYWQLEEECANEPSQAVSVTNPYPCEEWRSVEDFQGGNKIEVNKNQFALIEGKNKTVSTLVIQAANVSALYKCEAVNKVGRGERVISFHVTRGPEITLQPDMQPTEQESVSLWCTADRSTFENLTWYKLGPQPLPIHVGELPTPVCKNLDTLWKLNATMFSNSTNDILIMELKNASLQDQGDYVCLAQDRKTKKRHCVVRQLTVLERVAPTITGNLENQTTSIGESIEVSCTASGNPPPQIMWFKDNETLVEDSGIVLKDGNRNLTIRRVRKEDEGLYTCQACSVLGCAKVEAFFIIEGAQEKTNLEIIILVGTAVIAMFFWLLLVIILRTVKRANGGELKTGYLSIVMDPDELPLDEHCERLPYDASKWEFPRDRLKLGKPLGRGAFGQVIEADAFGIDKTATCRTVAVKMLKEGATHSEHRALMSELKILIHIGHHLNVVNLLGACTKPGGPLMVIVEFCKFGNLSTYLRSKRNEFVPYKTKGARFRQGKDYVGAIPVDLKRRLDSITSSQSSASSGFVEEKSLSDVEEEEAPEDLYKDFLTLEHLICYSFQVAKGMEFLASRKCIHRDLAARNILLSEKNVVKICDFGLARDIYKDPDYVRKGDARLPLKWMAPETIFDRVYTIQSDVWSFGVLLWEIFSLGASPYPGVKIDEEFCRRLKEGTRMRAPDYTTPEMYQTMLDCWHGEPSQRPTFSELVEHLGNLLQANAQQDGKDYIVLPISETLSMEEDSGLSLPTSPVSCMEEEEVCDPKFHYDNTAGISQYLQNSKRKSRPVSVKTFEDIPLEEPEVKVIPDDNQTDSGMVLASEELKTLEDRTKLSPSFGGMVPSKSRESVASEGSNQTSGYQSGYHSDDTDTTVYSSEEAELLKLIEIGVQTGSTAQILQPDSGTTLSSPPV", "assay": "RTK-Assay (ELISA, chemiluminescence)", "type": "biochemical", "conditions": "read-out: IC50 KDR (VEGFR 2)", "experimental": "To determine the IC50 of receptor-tyrosine-kinase an assay based on the ELISA-principle using kinases from Biomol (N-terminally fused to GST), POD-coupled antibody from Calbiochem (PY20) and BM chemiluminescence ELISA substrate from Roche was followed.\nIn short, a white 96 wells microplate was incubated overnight with 100 µl/well of the substrate solution (poly-Glu-Tyr diluted with PBS to 100 µg/ml) at 4 °C. The solution was removed and the plate was washed twice for 2 min with PBS-T. Afterwards the kinase solution (50 µl/well)( KDR (VEGFR2), 5 ng; Flt4 (VEGFR3), 20 ng; EGFR, 5 ng; IGFR, 15 ng; FGFR, 10 ng and Tie2, 20 ng) and the inhibitor solution (25 µl/well) were added to each well. To perform positive and negative control, 5% aqueous DMSO (25 µl/well) were used instead of inhibitor solution. Addition of ATP solution (25 µl/well) started the reaction, whereas 40 mM MnCl2 solution (25 µl/well) was added to the negative control instead of ATP. After incubation under mild shaking conditions for 30 min at rt the plate was washed with PBS-T (3 x 2 min) and subsequently incubated with antibody solution (anti-Phosphotyrosine-antibody (POD-coupled) diluted 1:10.000 in PBS-T + 0,2% (m/v) BSA)(100 µl/well) for 1 h again while shaking. In the end the plate was washed with PBS-T (3x5 min) and provided with the chemiluminescence substrate (50 µl/well). After 3 min the occurring luminescence was measured using a luminometer. […] For determination of IC50 values, the relative luminescence units per second (RLU/s) were blotted against the inhibitor concentrations. In doing so each concentration measurement was done triplicate and at least 5 different inhibitor concentrations were used to determine IC50 value.\nThis assay is based on the ELISA-principle using kinases from Biomol (N-terminally fused to GST), POD-coupled antibody from Calbiochem (PY20) and BM chemiluminescence ELISA substrate from Roche. […]\nFor determination of IC50 values, the relative luminescence units per second (RLU/s) were blotted against the inhibitor concentrations. […]"}
{"smiles": "CC(C)Nc1nc(-c2ccco2)nc2ccc(C#CCO)cc12", "note": "[Compound (C), 3-(2-(Furan-2-yl)-4-(isoiproipylamino)quinazolin-6-yl)prop-2-yn-l-ol]", "values": [{"measurement": "IC50", "value": "> 100", "unit": "µM"}]}
